From US8247211B2, “Glycopeptide antibiotics” (American Cyanamid Company, priority 2001, dated 2012)
Converted amounts (≈) assume the structure as drawn.

Experiments:
Assay in all cases: In vitro antibacterial evaluation: minimum inhibitory concentration (MIC), broth dilution method
Type in all cases: cell-based
Enterococcus sp. = conditions: broth dilution, 5×10^5 CFU/mL, 18 hours at 35° C.
Procedure: (§1) The minimum inhibitory concentration (MIC), the lowest concentration of the antibiotic which inhibits growth of the test organism, is determined by the broth dilution method using Muller-Hinton II […] (Baltimore Biological Laboratories) following the recommendations of the National Committee for Clinical Laboratory Standards [Methods for dilution antimicrobial susceptibility tests for bacteria that grow aerobically, approved standard M7-A2, National Committee for Clinical Laboratory Standards, Villanova, Pa].
(§2) An inoculum level of 5×10^5 CFU/mL, and a range of antibiotic concentrations (64-0.06 μg/mL) is used. […] The test organisms include a spectrum of Gram-positive bacteria comprised of Staphylococcus sp., Streptococcus sp. and Enterococcus sp. These organisms include recent clinical isolates that are resistant to methicillin, penicillin and/or vancomycin.

Escherichia coli = conditions: 5×10^5 CFU/mL, 18 hours at 35° C.
Procedure: as §1, §2

Staphylococcus sp. = conditions: for MIC Staphylococcus aureus (ATCC 29213): strain ATCC 29213; for MIC Staphylococcus aureus (GC 1131): strain GC 1131; for MIC Staphylococcus aureus (GC 3051): strain GC 3051; for MIC Staphylococcus aureus (GC 3053): strain GC 3053; for MIC Staphylococcus aureus (GC 4541): strain GC 4541; for MIC Staphylococcus aureus (GC 4542): strain GC 4542; for MIC Staphylococcus aureus (GC 4544): strain GC 4544; for MIC Staphylococcus aureus (GC 4545): strain GC 4545
Procedure: as §1, §2

Streptococcus sp. = conditions: broth dilution, 5×10^5 CFU/mL, 18 hours at 35° C.
Procedure: as §1, §2

[1] = broth dilution, 5×10^5 CFU/mL, 18 hours at 35° C.
[2] = broth dilution, 18 hours at 35° C.
[3] = strain GC 4543, broth dilution, 18 hours at 35° C.
[4] = strain GC 4546, broth dilution, 18 hours at 35° C.
[5] = strain GC 4547, broth dilution, 18 hours at 35° C.
[6] = strain GC 4548, broth dilution, 18 hours at 35° C.
[7] = strain GC 4549, broth dilution, 18 hours at 35° C.
[8] = strain GC 4551, broth dilution, 18 hours at 35° C.

Question: Which results are given for `CC(C)=CCCC(C)CC1OCC2OC(OC3C(CO)OC(Oc4ccc(CC5NC(=O)C(C(C)c6ccccc6)NC(=O)CNC(=O)C(CO)NC(=O)C(C(O)C6CNC(=N)N6C6OC(CO)C(O)C(O)C6O)NC(=O)C(C(O)C6CNC(=N)N6)NC5=O)cc4)C(O)C3O)C(O)C(O)C2O1` (stereo not drawn) [Example 126, Cyclo[glycyl-β-methylphenylalanyl-O-[4-O-[4,6-O-[3,7-dimethyloct-6-en-1-ylidene)hexopyranosyl]hexopyranosyl]tyrosyl-3-(2-iminoimidazolidin-4-yl)seryl-3-(3-hexopyranosyl-2-iminoimidazolidin-4-yl)serylseryl]]?
Answer: MIC Enterococccus avium (GC 4558) (Enterococcus sp.): 8 µg/mL (≈ 5.59 µM); MIC Enterococccus faecalis (ATCC 29212) (Enterococcus sp.): 8 µg/mL (≈ 5.59 µM); MIC Enterococccus faecalis (GC 2691) (Enterococcus sp.): 8 µg/mL (≈ 5.59 µM); MIC Enterococccus faecalis (GC 3059) (Enterococcus sp.): 8 µg/mL (≈ 5.59 µM); MIC Enterococccus faecalis (GC 4552) (Enterococcus sp.): 8 µg/mL (≈ 5.59 µM); MIC Enterococccus faecalis (GC 4553) (Enterococcus sp.): 8 µg/mL (≈ 5.59 µM); MIC Enterococccus faecalis (GC 4554) (Enterococcus sp.): 8 µg/mL (≈ 5.59 µM); MIC Enterococccus faecalis (GC 6189) (Enterococcus sp.): 8 µg/mL (≈ 5.59 µM); MIC Enterococccus faecium (GC 2243) (Enterococcus sp.): 8 µg/mL (≈ 5.59 µM); MIC Enterococccus faecium (GC 4556) (Enterococcus sp.): 8 µg/mL (≈ 5.59 µM); MIC Enterococccus faecium (GC 4557) (Enterococcus sp.): 8 µg/mL (≈ 5.59 µM); MIC Enterococcus faecalis (GC 2242) (Enterococcus sp.): 8 µg/mL (≈ 5.59 µM); MIC Escherichia coli (ATCC 25922) (Escherichia coli): 64 µg/mL (≈ 44.7 µM); MIC Escherichia coli (GC 4559) (Escherichia coli): 64 µg/mL (≈ 44.7 µM); MIC Escherichia coli (GC 4560) (Escherichia coli): 8 µg/mL (≈ 5.59 µM); MIC Coagulase Negative Staphylococcus (GC 4547) (Staphylococcus sp.; [1]): 8 µg/mL (≈ 5.59 µM); MIC Coagulase Negative Staphylococcus (GC 4548) (Staphylococcus sp.; [1]): 8 µg/mL (≈ 5.59 µM); MIC Coagulase Negative Staphylococcus (GC 4549) (Staphylococcus sp.; [1]): 8 µg/mL (≈ 5.59 µM); MIC Coagulase Negative Staphylococcus (GC 4551) (Staphylococcus sp.; [1]): 8 µg/mL (≈ 5.59 µM); MIC Coagulase Negative Staphylococcus (GC 6257) (Staphylococcus sp.; [1]): 8 µg/mL (≈ 5.59 µM); MIC Staphylococcus aureus-SMITH (GC 4543) (Staphylococcus sp.; [1]): 8 µg/mL (≈ 5.59 µM); MIC Staphylococcus haemolyticus (GC 4546) (Staphylococcus sp.; [1]): 8 µg/mL (≈ 5.59 µM); MIC Staphylococcus aureus (ATCC 29213) (Staphylococcus sp.): 8 µg/mL (≈ 5.59 µM); MIC Staphylococcus aureus (ATCC 29213) (Staphylococcus sp.; [2]): 8 µg/mL (≈ 5.59 µM); MIC Staphylococcus aureus (GC 1131) (Staphylococcus sp.): 8 µg/mL (≈ 5.59 µM); MIC Staphylococcus aureus (GC 1131) (Staphylococcus sp.; [2]): 8 µg/mL (≈ 5.59 µM); MIC Staphylococcus aureus (GC 3051) (Staphylococcus sp.): 8 µg/mL (≈ 5.59 µM); MIC Staphylococcus aureus (GC 3051) (Staphylococcus sp.; [2]): 8 µg/mL (≈ 5.59 µM); MIC Staphylococcus aureus (GC 3053) (Staphylococcus sp.): 8 µg/mL (≈ 5.59 µM); MIC Staphylococcus aureus (GC 3053) (Staphylococcus sp.; [2]): 8 µg/mL (≈ 5.59 µM); MIC Staphylococcus aureus (GC 4541) (Staphylococcus sp.): 8 µg/mL (≈ 5.59 µM); MIC Staphylococcus aureus (GC 4541) (Staphylococcus sp.; [2]): 8 µg/mL (≈ 5.59 µM); MIC Staphylococcus aureus (GC 4542) (Staphylococcus sp.): 8 µg/mL (≈ 5.59 µM); MIC Staphylococcus aureus (GC 4542) (Staphylococcus sp.; [2]): 8 µg/mL (≈ 5.59 µM); MIC Staphylococcus aureus-SMITH (GC 4543) (Staphylococcus sp.; [3]): 8 µg/mL (≈ 5.59 µM); MIC Staphylococcus aureus (GC 4544) (Staphylococcus sp.): 8 µg/mL (≈ 5.59 µM); MIC Staphylococcus aureus (GC 4544) (Staphylococcus sp.; [2]): 8 µg/mL (≈ 5.59 µM); MIC Staphylococcus aureus (GC 4545) (Staphylococcus sp.): 8 µg/mL (≈ 5.59 µM); MIC Staphylococcus aureus (GC 4545) (Staphylococcus sp.; [2]): 8 µg/mL (≈ 5.59 µM); MIC Staphylococcus haemolyticus (GC 4546) (Staphylococcus sp.; [4]): 8 µg/mL (≈ 5.59 µM); MIC Coagulase Negative Staphylococcus (GC 4547) (Staphylococcus sp.; [5]): 8 µg/mL (≈ 5.59 µM); MIC Coagulase Negative Staphylococcus (GC 4548) (Staphylococcus sp.; [6]): 8 µg/mL (≈ 5.59 µM); MIC Coagulase Negative Staphylococcus (GC 4549) (Staphylococcus sp.; [7]): 8 µg/mL (≈ 5.59 µM); MIC Coagulase Negative Staphylococcus (GC 4551) (Staphylococcus sp.; [8]): 8 µg/mL (≈ 5.59 µM); MIC Coagulase Negative Staphylococcus (GC 6257) (Staphylococcus sp.; strain GC 6257, broth dilution, 18 hours at 35° C.): 8 µg/mL (≈ 5.59 µM); MIC Streptococcus agalactiae (GC 4564) (Streptococcus sp.): 1 µg/mL (≈ 0.699 µM); MIC Streptococcus pneumoniae (GC 1894) (Streptococcus sp.): <0.06 µg/mL; MIC Streptococcus pneumoniae (GC 4565) (Streptococcus sp.): <0.06 µg/mL; MIC Streptococcus pneumonine (ATCC 6301) (Streptococcus sp.): <0.06 µg/mL; MIC Streptococcus pyogenes (GC 4563) (Streptococcus sp.): 0.12 µg/mL (≈ 0.0838 µM)

Question: What does the source list for `CC(c1ccccc1)C1NC(=O)CNC(=O)C(CO)NC(=O)C(C(O)C2CNC(=N)N2C2OC(CO)C(O)C(O)C2O)NC(=O)C(C(O)C2CNC(=N)N2)NC(=O)C(Cc2ccc(OC3OC(CO)C(OC4OC5COC(C67CC8CC(CC(C8)C6)C7)OC5C(O)C4O)C(O)C3O)cc2)NC1=O` (centres unmarked) [Example 127]?
Answer: MIC Enterococccus avium (GC 4558) (Enterococcus sp.): 2 µg/mL (≈ 1.39 µM); MIC Enterococccus faecalis (ATCC 29212) (Enterococcus sp.): 2 µg/mL (≈ 1.39 µM); MIC Enterococccus faecalis (GC 2691) (Enterococcus sp.): 4 µg/mL (≈ 2.77 µM); MIC Enterococccus faecalis (GC 3059) (Enterococcus sp.): 2 µg/mL (≈ 1.39 µM); MIC Enterococccus faecalis (GC 4552) (Enterococcus sp.): 4 µg/mL (≈ 2.77 µM); MIC Enterococccus faecalis (GC 4553) (Enterococcus sp.): 4 µg/mL (≈ 2.77 µM); MIC Enterococccus faecalis (GC 4554) (Enterococcus sp.): 4 µg/mL (≈ 2.77 µM); MIC Enterococccus faecalis (GC 6189) (Enterococcus sp.): 2 µg/mL (≈ 1.39 µM); MIC Enterococccus faecium (GC 2243) (Enterococcus sp.): 4 µg/mL (≈ 2.77 µM); MIC Enterococccus faecium (GC 4556) (Enterococcus sp.): 4 µg/mL (≈ 2.77 µM); MIC Enterococccus faecium (GC 4557) (Enterococcus sp.): 4 µg/mL (≈ 2.77 µM); MIC Enterococcus faecalis (GC 2242) (Enterococcus sp.): 4 µg/mL (≈ 2.77 µM); MIC Escherichia coli (ATCC 25922) (Escherichia coli): 64 µg/mL (≈ 44.4 µM); MIC Escherichia coli (GC 4559) (Escherichia coli): 64 µg/mL (≈ 44.4 µM); MIC Escherichia coli (GC 4560) (Escherichia coli): 4 µg/mL (≈ 2.77 µM); MIC Coagulase Negative Staphylococcus (GC 4547) (Staphylococcus sp.; [1]): 4 µg/mL (≈ 2.77 µM); MIC Coagulase Negative Staphylococcus (GC 4548) (Staphylococcus sp.; [1]): 2 µg/mL (≈ 1.39 µM); MIC Coagulase Negative Staphylococcus (GC 4549) (Staphylococcus sp.; [1]): 1 µg/mL (≈ 0.694 µM); MIC Coagulase Negative Staphylococcus (GC 4551) (Staphylococcus sp.; [1]): 2 µg/mL (≈ 1.39 µM); MIC Staphylococcus aureus-SMITH (GC 4543) (Staphylococcus sp.; [1]): 2 µg/mL (≈ 1.39 µM); MIC Staphylococcus haemolyticus (GC 4546) (Staphylococcus sp.; [1]): 2 µg/mL (≈ 1.39 µM); MIC Staphylococcus aureus (ATCC 29213) (Staphylococcus sp.): 2 µg/mL (≈ 1.39 µM); MIC Staphylococcus aureus (ATCC 29213) (Staphylococcus sp.; [2]): 2 µg/mL (≈ 1.39 µM); MIC Staphylococcus aureus (GC 1131) (Staphylococcus sp.): 4 µg/mL (≈ 2.77 µM); MIC Staphylococcus aureus (GC 1131) (Staphylococcus sp.; [2]): 4 µg/mL (≈ 2.77 µM); MIC Staphylococcus aureus (GC 3051) (Staphylococcus sp.): 2 µg/mL (≈ 1.39 µM); MIC Staphylococcus aureus (GC 3051) (Staphylococcus sp.; [2]): 2 µg/mL (≈ 1.39 µM); MIC Staphylococcus aureus (GC 3053) (Staphylococcus sp.): 2 µg/mL (≈ 1.39 µM); MIC Staphylococcus aureus (GC 3053) (Staphylococcus sp.; [2]): 2 µg/mL (≈ 1.39 µM); MIC Staphylococcus aureus (GC 4541) (Staphylococcus sp.): 4 µg/mL (≈ 2.77 µM); MIC Staphylococcus aureus (GC 4541) (Staphylococcus sp.; [2]): 4 µg/mL (≈ 2.77 µM); MIC Staphylococcus aureus (GC 4542) (Staphylococcus sp.): 2 µg/mL (≈ 1.39 µM); MIC Staphylococcus aureus (GC 4542) (Staphylococcus sp.; [2]): 2 µg/mL (≈ 1.39 µM); MIC Staphylococcus aureus-SMITH (GC 4543) (Staphylococcus sp.; [3]): 2 µg/mL (≈ 1.39 µM); MIC Staphylococcus aureus (GC 4544) (Staphylococcus sp.): 4 µg/mL (≈ 2.77 µM); MIC Staphylococcus aureus (GC 4544) (Staphylococcus sp.; [2]): 4 µg/mL (≈ 2.77 µM); MIC Staphylococcus aureus (GC 4545) (Staphylococcus sp.): 2 µg/mL (≈ 1.39 µM); MIC Staphylococcus aureus (GC 4545) (Staphylococcus sp.; [2]): 2 µg/mL (≈ 1.39 µM); MIC Staphylococcus haemolyticus (GC 4546) (Staphylococcus sp.; [4]): 2 µg/mL (≈ 1.39 µM); MIC Coagulase Negative Staphylococcus (GC 4547) (Staphylococcus sp.; [5]): 4 µg/mL (≈ 2.77 µM); MIC Coagulase Negative Staphylococcus (GC 4548) (Staphylococcus sp.; [6]): 2 µg/mL (≈ 1.39 µM); MIC Coagulase Negative Staphylococcus (GC 4549) (Staphylococcus sp.; [7]): 1 µg/mL (≈ 0.694 µM); MIC Coagulase Negative Staphylococcus (GC 4551) (Staphylococcus sp.; [8]): 2 µg/mL (≈ 1.39 µM); MIC Streptococcus agalactiae (GC 4564) (Streptococcus sp.): <0.12 µg/mL; MIC Streptococcus pneumoniae (GC 1894) (Streptococcus sp.): <0.12 µg/mL; MIC Streptococcus pneumoniae (GC 4565) (Streptococcus sp.): <0.12 µg/mL; MIC Streptococcus pneumonine (ATCC 6301) (Streptococcus sp.): <0.12 µg/mL; MIC Streptococcus pyogenes (GC 4563) (Streptococcus sp.): 0.25 µg/mL (≈ 0.173 µM)
